Here are results for ten compounds from US4988733A, “N-[1-(3-phenoxyphenyl)ethyl]acetohydroxamic acid compounds which are useful anti-inflammatory agents” (Burroughs Wellcome Co., priority 1987, dated 1991).

Series [1] in a line: Plasma concentration after administration to rabbits of 10 mg/kg PO. In kind it is in vivo. Conditions: rabbit; for Cmax: read-out: Maximum plasma concentration; for half-life: read-out: time for plasma concentration to fall to 50% of maximum value obtained after administration (converted). Here is the method: A. Maximum plasma concentration obtained after administration to rabbits of 10 mg/kg PO and time for plasma concentration to fall to 50% of maximum value obtained after administration

The subject of series [2] is stimulated LTB4 synthesis. The series is described as follows: Stimulated LTB4 synthesis ex vivo after administration to rabbits of 10 mg/kg PO. It counts as in vivo. On the procedure:
B. Time for stimulated LTB4 synthesis ex vivo to return to 50% of original value after administration to rabbits of 10 mg/kg PO

In another series the target is T1, 5-lipoxygenase (5-LO) (Homo sapiens, UniProt P09917).
T1 construct: The leukocytes were homogenised and 5 μM arachidonic acid added; from tissue; host or cells: homogenised blood leukocytes of normal aspirin-free volunteers
T1 sequence (P09917 1-674): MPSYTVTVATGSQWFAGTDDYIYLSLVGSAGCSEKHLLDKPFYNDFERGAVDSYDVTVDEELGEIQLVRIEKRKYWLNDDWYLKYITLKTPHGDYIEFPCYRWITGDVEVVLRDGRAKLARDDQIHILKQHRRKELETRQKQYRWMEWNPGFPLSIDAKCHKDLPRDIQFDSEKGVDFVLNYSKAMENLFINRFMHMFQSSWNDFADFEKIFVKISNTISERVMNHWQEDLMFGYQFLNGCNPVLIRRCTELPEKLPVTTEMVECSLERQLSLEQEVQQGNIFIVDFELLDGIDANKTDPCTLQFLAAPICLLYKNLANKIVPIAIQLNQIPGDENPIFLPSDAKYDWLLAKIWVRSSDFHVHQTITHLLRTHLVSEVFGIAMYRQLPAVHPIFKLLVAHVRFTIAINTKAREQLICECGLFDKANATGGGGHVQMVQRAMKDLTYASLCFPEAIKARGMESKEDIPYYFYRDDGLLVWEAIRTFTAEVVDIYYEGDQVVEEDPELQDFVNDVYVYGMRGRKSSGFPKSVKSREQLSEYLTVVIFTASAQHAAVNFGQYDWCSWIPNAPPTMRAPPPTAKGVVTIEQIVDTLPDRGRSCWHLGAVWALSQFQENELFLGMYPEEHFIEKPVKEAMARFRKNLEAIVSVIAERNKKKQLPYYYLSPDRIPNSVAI
As to the kind of experiment: In vitro inhibition of 5-lipoxygenase in homogenised leukocytes (LTB4 radioimmunoassay). It counts as biochemical. Conditions: homogenised leukocytes of aspirin-free volunteers, 5 μM arachidonic acid, 37° C., 5 minutes. Here is the method:
(§1) C. In vitro inhibition of 5-lipoxygenase (5-LO) and cyclo-oxygenase (CO) Blood from normal aspirin-free volunteers was centrifuged to separate leukocytes from red cells and platelets. The leukocytes were homogenised and 5 μM arachidonic acid added, followed by incubation at 37° C. for 5 minutes. The reaction was stopped by boiling and radioimmunoassays conducted for LTB4 and TXB2. Results were calculated as IC50 (μM) activity against each enzyme.

A further series concerns the target T2, cyclo-oxygenase (CO) (Homo sapiens, UniProt P23219).
T2 construct: The leukocytes were homogenised and 5 μM arachidonic acid added; from tissue; host or cells: homogenised blood leukocytes of normal aspirin-free volunteers
As to the kind of experiment: In vitro inhibition of cyclo-oxygenase in homogenised leukocytes (TXB2 radioimmunoassay). It counts as biochemical. Conditions: homogenised leukocytes of aspirin-free volunteers, 5 μM arachidonic acid, 37° C., 5 minutes. Here is the method: as §1

Molecules are shown by their SMILES. pIC50: −log10 of the molar value. Several values for one entry are separate records, joined by “and”; a condition that tells them apart may be missing. Equal values may be shown once.

T2 sequence (P23219 24-599): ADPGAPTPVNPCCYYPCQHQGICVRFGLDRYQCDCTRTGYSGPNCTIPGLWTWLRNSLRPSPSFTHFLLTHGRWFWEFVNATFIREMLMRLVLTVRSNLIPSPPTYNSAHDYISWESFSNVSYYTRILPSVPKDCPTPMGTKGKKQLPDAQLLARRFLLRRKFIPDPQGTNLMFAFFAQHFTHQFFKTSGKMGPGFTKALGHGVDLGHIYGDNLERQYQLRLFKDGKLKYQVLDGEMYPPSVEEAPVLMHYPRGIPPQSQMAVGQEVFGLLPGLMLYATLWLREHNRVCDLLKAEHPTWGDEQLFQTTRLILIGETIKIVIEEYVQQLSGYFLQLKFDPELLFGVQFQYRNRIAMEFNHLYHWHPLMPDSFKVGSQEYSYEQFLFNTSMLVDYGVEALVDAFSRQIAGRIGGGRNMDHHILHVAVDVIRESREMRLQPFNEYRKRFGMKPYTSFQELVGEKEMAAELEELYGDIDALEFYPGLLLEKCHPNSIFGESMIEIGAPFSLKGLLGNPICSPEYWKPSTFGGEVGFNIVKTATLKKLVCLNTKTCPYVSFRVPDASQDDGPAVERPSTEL

On to `CC(=O)N(O)C(C)/C=C/c1cccc(Oc2ccccc2)c1` (stereo not drawn) [(E)-N-[1-methyl-3-(3-phenoxyphenyl)prop-2-enyl]acetohydroxamic acid], for which, in series [1], the Cmax was determined as 460 ng/mL and the half-life was 10.7 h. Besides, the “Time for stimulated LTB4 synthesis ex vivo to return to 50% of original value” (“Time … to 50% of original value” below) in series [2] is given as 22.6 h. In addition, at 5-lipoxygenase (5-LO), the pIC50 was 7.10. On cyclo-oxygenase (CO), this compound gave a pIC50 of 6.00.

For the compound `CC(=O)N(O)C(C)/C=C/c1cccc(Oc2ccc(Cl)cc2)c1` (stereo not drawn) [(E)-N-{1-methyl-3-[3-(4-chlorophenoxy)phenyl]prop-2-enyl}acetohydroxamic acid], in series [1], the Cmax worked out at 930 ng/mL and the half-life was over 24 h. Moreover, in series [2], the “Time … to 50% of original value” was over 24 h. The compound also gave a negative-log IC50 (pIC50) at 5-lipoxygenase (5-LO) of 7.10. Moreover, at cyclo-oxygenase (CO), the pIC50 was under 6.00.

In the case of `CC(=O)N(O)C(C)/C=C/c1cccc(Oc2cccc(C(F)(F)F)c2)c1` (stereo not drawn) [(E)-N-{1-Methyl-3-[3-(3-trifluoromethylphenoxy)phenyl]prop-2-enyl}acetohydroxamic acid], in series [1], the Cmax was found to be 840 ng/mL and the half-life was over 24 h. Also, the “Time … to 50% of original value” in series [2] is given as over 24 h. Also, the pIC50 at 5-lipoxygenase (5-LO) is 6.96. Besides, the pIC50 at cyclo-oxygenase (CO) was under 6.00.

Turning to `CC(=O)N(O)C(C)/C=C/c1cccc(Oc2ccc(F)cc2F)c1` (stereo not drawn) [(E)-N-{1-Methyl-3-[3-(2,4-difluorophenoxy)phenyl]prop-2-enyl}acetohydroxamic acid], in series [2], the “Time … to 50% of original value” is 20.7 h.

As to `CC(=O)N(O)C(C)/C=C/c1cccc(Oc2cc(Cl)cc(Cl)c2)c1` (stereo not drawn) [(E)-N-{1-Methyl-3-[3-(3,5-dichlorophenoxy)phenyl]prop-2-enyl}acetohydroxamic acid], in series [1], the Cmax stood at 1900 ng/mL and the half-life was over 24 h. Also, in series [2], the “Time … to 50% of original value” is recorded as over 24 h. The compound further gave a pIC50 against 5-lipoxygenase (5-LO) of 6.40.

Turning to `CC(=O)N(O)C/C=C/c1cccc(Oc2ccccc2)c1` [(E)-N-[3-(3-phenoxyphenyl)prop-2-enyl]acetohydroxamic acid, reference compound], the pIC50 on cyclo-oxygenase (CO) was 6.00.

Consider `CC(=O)N(O)C(C)/C=C/c1cccc(Oc2ccc(C)cc2)c1` (stereo not drawn) [(E)-N-{1-Methyl-3-[3-(4-methylphenoxy)phenyl]prop-2-enyl}acetohydroxamic acid], for which, in series [1], the Cmax came out at 70 ng/mL and the half-life is 4.3 h.

Turning to `CC(=O)N(O)C(C)/C=C/c1cccc(Oc2ccc(C(C)(C)C)cc2)c1` (stereo not drawn) [(E)-N-{1-Methyl-3-[3-(4-t-butylphenoxy)phenyl]prop-2-enyl}acetohydroxamic acid], in series [1], the Cmax stood at 160 ng/mL and the half-life is over 24 h. Further, the “Time … to 50% of original value” in series [2] stood at 2.4 h. Moreover, at 5-lipoxygenase (5-LO), the pIC50 is 6.30.

For `CC(=O)N(O)C(C)/C=C/c1cccc(Oc2ccc(Br)cc2)c1` (stereo not drawn) [(E)-N-{1-Methyl-3-[3-(4-bromophenoxy)phenyl]prop-2-enyl}acetohydroxamic acid], in series [1], the Cmax worked out at 710 ng/mL and the half-life is over 24 h. Besides, in series [2], the “Time … to 50% of original value” is reported as over 24 h. This compound also showed a pIC50 on 5-lipoxygenase (5-LO) of 8.00. The pIC50 on cyclo-oxygenase (CO) was 6.74.

As to `CC(=O)N(O)C(C)/C=C/c1cccc(Oc2ccc(F)cc2)c1` (stereo not drawn) [(E)-N-{1-methyl-3-[3-(4-fluorophenoxy)phenyl]prop-2-enyl}acetohydroxamic acid], in series [1], the Cmax came out at 1070 ng/mL and the half-life was 11.3 h. The “Time … to 50% of original value” in series [2] was found to be 24.0 h. Further, the pIC50 against 5-lipoxygenase (5-LO) was 6.70 and 6.52.
